Reference: US20100035907A1, “NEW 2,4-DIANILINOPYRIMIDINES, PREPARATION THEREOF AS DRUGS, PHARMACEUTICAL COMPOSITIONS AND USE THEREOF ESSENTIALLY AS IKK INHIBITORS” (Sanofi-aventis, priority 2007, published 2010)

Compound	melting point [°C]
Cc1cc(Nc2ccnc(Nc3ccc(C(=O)N(C)C4CCCN(CCCC(F)(F)F)C4)cc3)n2)ccc1F (centres unmarked) [Example 2, 4-[4-(4-Fluoro-3-methylphenylamino)pyrimidin-2-ylamino]-N-methyl-N-[1-(4,4,4-trifluorobutyl)piperidin-3-yl]benzamide]	100 to 110
Cc1cc(Nc2ccnc(Nc3ccc(C(=O)N(C)C4CCCN(Cc5csnn5)C4)cc3)n2)ccc1F (centres unmarked) [Example 3, 4-[4-(4-Fluoro-3-methylphenylamino)pyrimidin-2-ylamino]-N-methyl-N-[1-(1,2,3-thiadiazol-4-ylmethyl)piperidin-3-yl]benzamide]	125 to 130
CN1CCC(N(C)C(=O)c2ccc(Nc3nccc(Nc4ccc(C(F)(F)F)cc4)n3)cc2)CC1 [Example 4, N-Methyl-N-(1-methylpiperidin-4-yl)-4-[4-(4-(trifluoromethyl)phenylamino)pyrimidin-2-ylamino]benzamide]	238 to 244
CN(C(=O)c1ccc(Nc2nccc(Nc3ccc(C(F)(F)F)cc3)n2)cc1)C1CCOCC1 [Example 5, N-Methyl-N-(tetrahydropyran-4-yl)-4-[4-(4-(trifluoromethyl)phenylamino)pyrimidin-2-ylamino]benzamide]	254 to 256
CN(C(=O)c1ccc(Nc2nccc(Nc3ccc(F)cc3)n2)cc1)C1CCN2CCCC2C1 (centres unmarked) [Example 7]	230 to 235
